Measured values reported in patent US9505775B2, “Inhibitors of cytomegalovirus” (Boehringer Ingelheim International GmbH, priority 2012, dated 2016).

Molecular target: T1, purified recombinant HCMV polymerase from strain AD169 (UL54) (Human cytomegalovirus, UniProt P08546)
T1 construct: made in house; host or cells: Sf21 insect cells (baculovirus)
Test: HCMV Polymerase LANCE TR-FRET Assay
Assay type: biochemical
Settings: 2 nM GST-UL54, 37° C. for 30 min; read-out: IC50 (nM) Example B
Experimental: This non-radiometric assay determines the enzymatic activity of purified recombinant HCMV polymerase from strain AD169 (UL54) using a Digoxigenin-labeled oligonucleotide priming a heteropolymeric template. The enzymatic activity is determined by incorporating Biotin-dUTP in the nascent complementary strand. The signal is generated by Fluorescence Resonance Energy Transfer from the donor (Anti-Digoxigenin-Europium Chelate binding with the primer) to the acceptor Streptavidin-AlloPhycoCyanin (SA-APC) binding to the biotin of the labeled nucleotides incorporated in proximity.
Serial dilutions of the DMSO stock compound solution are performed using DMSO in columns 2-11 and 14-23. DMSO alone is present in columns 1, 12, 13 and 24. Three μL of the DMSO serial dilutions is transferred and diluted using 21 μL of compound dilution buffer (10 mM Hepes pH 7.5, 25 mM KCl, 5 mM MgCl2, 1 mM TCEP) to obtain 12.5% DMSO. 4 μL per well of the 12.5% DMSO serial dilution compound solution is added to the assay plate. The plate is centrifuged at 200×g for 30 sec.
The assay conditions are the following: 10 mM HEPES pH 7.5, 25 mM KCl, 7.5 mM NaCl, 5 mM MgCl2, 0.2 mg BSA/mL, 1 mM TCEP, 1.5% glycerol, 5% DMSO, 235 nM dATP, 350 nM dCTP, 350 nM dGTP, 235 nM dTTP, 12 nM biotin-16-dUTP, 23.5 nM Dig-primer/template, 2 nM GST-UL54. The assay volume is 10 μL. […] The primer and template are annealed in 10 mM Tris-HCl pH 7.5, 50 mM NaCl at a respective concentration of 50 μM. They are incubated at 95° C. for 5 min in a dry batch block. The block is removed from the dry bath and allowed to cool to RT. Aliquots are made and stored at −20° C.
To perform the assay, 3 μL of the enzyme solution is added to columns 2-12 and 14-24. The enzyme is substituted by the blank solution (b solution without enzyme) for columns 1 and 13 (blanks). The plate is centrifuged at 200×g for 30 sec. 3 μL of substrate solution is added to each well. The plate is centrifuged at 200×g for 30 sec. Plates are incubated at 37° C. for 30 min. 5 μL of conjugate solution is added (25 mM Hepes pH 7.5, 0.1 M NaCl, 0.25% Tween-20, 1 mg/mL BSA, 12 mM EDTA, 24 nM Sreptavidin-APC, 342 ng/mL Anti-Dig-Europium). The plates are incubated at RT for at least 120 min. The signal is read on the Envision plate reader (Perkin-Elmer) or equivalent.

T1 sequence (P08546 whole entry): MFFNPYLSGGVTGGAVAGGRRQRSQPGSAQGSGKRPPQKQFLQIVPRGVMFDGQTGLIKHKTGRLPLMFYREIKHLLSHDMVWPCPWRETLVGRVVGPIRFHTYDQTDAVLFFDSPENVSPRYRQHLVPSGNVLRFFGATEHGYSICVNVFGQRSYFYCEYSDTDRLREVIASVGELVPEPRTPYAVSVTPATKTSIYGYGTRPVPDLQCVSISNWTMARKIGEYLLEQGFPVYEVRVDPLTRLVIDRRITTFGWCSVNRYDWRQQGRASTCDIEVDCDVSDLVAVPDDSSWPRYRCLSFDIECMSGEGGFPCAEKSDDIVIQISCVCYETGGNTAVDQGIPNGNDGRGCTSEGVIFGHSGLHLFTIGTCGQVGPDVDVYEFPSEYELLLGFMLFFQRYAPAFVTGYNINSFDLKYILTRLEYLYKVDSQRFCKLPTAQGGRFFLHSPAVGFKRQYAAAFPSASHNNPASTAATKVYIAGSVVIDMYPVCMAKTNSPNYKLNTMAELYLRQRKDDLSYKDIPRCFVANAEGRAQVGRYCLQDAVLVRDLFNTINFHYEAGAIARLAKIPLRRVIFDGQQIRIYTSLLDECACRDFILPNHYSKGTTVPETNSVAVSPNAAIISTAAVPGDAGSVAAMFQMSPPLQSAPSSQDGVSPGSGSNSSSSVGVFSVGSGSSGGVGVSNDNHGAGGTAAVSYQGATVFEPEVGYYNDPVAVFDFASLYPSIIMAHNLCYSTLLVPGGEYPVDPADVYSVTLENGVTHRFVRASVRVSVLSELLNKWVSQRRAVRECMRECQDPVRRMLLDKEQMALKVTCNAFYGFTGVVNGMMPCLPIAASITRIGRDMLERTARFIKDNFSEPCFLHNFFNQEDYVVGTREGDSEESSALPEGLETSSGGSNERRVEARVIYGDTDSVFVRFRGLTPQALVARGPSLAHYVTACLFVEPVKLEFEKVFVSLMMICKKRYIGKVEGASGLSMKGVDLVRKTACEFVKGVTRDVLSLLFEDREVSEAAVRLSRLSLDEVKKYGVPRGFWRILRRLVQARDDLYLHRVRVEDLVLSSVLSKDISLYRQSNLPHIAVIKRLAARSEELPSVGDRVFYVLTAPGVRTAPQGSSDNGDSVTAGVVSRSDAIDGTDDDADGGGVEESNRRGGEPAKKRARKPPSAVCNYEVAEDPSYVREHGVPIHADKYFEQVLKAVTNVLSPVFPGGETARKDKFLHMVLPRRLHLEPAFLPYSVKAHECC

| Structure (SMILES) | IC50 [nM] |
| --- | --- |
| Cn1cncc1CCc1ccc2c(c1)C(C)(CO)CN2C(=O)[C@H]1CC(=O)N(c2cccc(Cl)c2)C1 (single isomer, unassigned) [11oo1] | 1600 |
| CC1(C)CN(C(=O)[C@H]2CC(=O)N(c3cccc(C#N)c3)C2)c2ccc(Cn3cncc3C(=O)O)cc21 [24d1] | 550 |
| CC1(C)CN(C(=O)[C@H]2CC(=O)N(c3cccc(Cl)c3)C2)c2ccc(CCc3cncnc3)cc21 [11h1] | 94 |
| CC(C)n1cnnc1CN(C)Cc1ccc2c(c1)CCN2C(=O)C1CC(=O)N(c2cccc(C#N)c2)C1 (stereo not drawn) [16c3] | 600 |
| CC1(C)CN(C(=O)[C@H]2CC(=O)N(c3cccc(C#N)c3)C2)c2ccc(CCc3ccccn3)cc21 [11bbb1] | 310 |
| Cc1ccc(CCc2ccc3c(c2)C(C)(C)CN3C(=O)[C@H]2CC(=O)N(c3cccc(C#N)c3)C2)cn1 [11ss1] | 130 |
| CC1(C)CN(C(=O)C2CC(=O)N(c3cccc(C#N)c3)C2)c2cc(Cl)c(Cn3cnnc3)cc21 (stereo not drawn) [13l1] | 230 |
| N#Cc1cccc(N2C[C@@H](C(=O)N3CCc4nc(CCn5ccnc5)ccc43)CC2=O)c1 [17n1] | 540 |
| CC1(C)CN(C(=O)[C@H]2CC(=O)N(c3cccc(Cl)c3)C2)c2ccc(CCn3ccnc3)cc21 [11g1] | 200 |
| Cn1cncc1Cc1ccc2c(c1)CCN2C(=O)[C@H]1CC(=O)N(c2cccc(C#N)c2)C1 [22j1] | 480 |
| N#Cc1cccc(N2C[C@@H](C(=O)N3CC4(CC4)c4cc(Cc5cncnc5)ccc43)CC2=O)c1 [22u1] | 570 |
| Cc1nccn1Cc1ccc2c(c1F)C(C)(C)CN2C(=O)[C@H]1CC(=O)N(c2cccc(C#N)c2)C1 [13g1] | 2100 |
| Cc1nccn1Cc1cc2c(cc1C(F)(F)F)N(C(=O)[C@H]1CC(=O)N(c3cccc(C#N)c3)C1)CC2(C)C [11s1] | 590 |
| CC1(C)CN(C(=O)[C@H]2CC(=O)N(c3cccc(Cl)c3)C2)c2ccc(Cn3ccnc3)cc21 [13d1] | 110 |
| CC1(C)CN(C(=O)[C@H]2CC(=O)N(c3cccc(C#N)c3)C2)c2ccc(CCc3cncc(N)c3)cc21 [11ddd1] | 38 |
| Cc1nccn1Cc1ccc2c(c1)C(C)CN2C(=O)[C@H]1CC(=O)N(c2cccc(C#N)c2)C1 (single isomer, unassigned) [13o1] | 3200 |
| CC1(C)CN(C(=O)[C@H]2CC(=O)N(c3cccc(C#N)c3)C2)c2ccc(CCc3cncc(C#N)c3)cc21 [11t1] | 370 |
| Cc1ncc(Cc2ccc3c(c2)C(C)(C)CN3C(=O)C2CC(=O)N(c3cccc(C#N)c3)C2)o1 (stereo not drawn) [22s1] | 550 |
| Cc1oncc1Cc1ccc2c(c1)CCN2C(=O)[C@H]1CC(=O)N(c2cccc(C#N)c2)C1 [22dd1] | 290 |
| Cc1ncc(Cc2ccc3c(c2)C(C)(C)CN3C(=O)[C@H]2CC(=O)N(c3cccc(C#N)c3)C2)o1 [22w1] | 470 |
| CC(c1ccc2c(c1)C(C)(C)CN2C(=O)[C@H]1CC(=O)N(c2cccc(C#N)c2)C1)n1ccnc1 (mixture of isomers) [11rr1] | 350 |
| CC1CN(C(=O)[C@H]2CC(=O)N(c3cccc(C#N)c3)C2)c2ccc(CCn3ccnc3)cc21 (single isomer, unassigned) [11aa1] | 100 |
| CC1(C)CN(C(=O)[C@H]2CC(=O)N(c3cccc(C#N)c3)C2)c2ccc(CCc3cccc(O)c3)cc21 [11ccc1] | 87 |
| CC1(C)CN(C(=O)[C@H]2CC(=O)N(c3cccc(C#N)c3)C2)c2ccc(Cn3cnnc3)cc21 [11vv1] | 160 |
| CC(=O)N1CCC2(CC1)CN(C(=O)[C@H]1CC(=O)N(c3cccc(C#N)c3)C1)c1ccc(CN3CCOCC3)cc12 [11a1] | 580 |
| CC1(C)CN(C(=O)[C@H]2CC(=O)N(c3cccc(C#N)c3)C2)c2ccc(Cc3cnoc3)cc21 [22a2] | 260 |
| CC1CN(C(=O)[C@H]2CC(=O)N(c3cccc(Cl)c3)C2)c2ccc(CCn3ccnc3)cc21 (single isomer, unassigned) [11ee1] | 63 |

| Structure (SMILES) | IC50 [nM] |
| --- | --- |
| N#Cc1cccc(N2C[C@@H](C(=O)N3CCc4cc(Cn5ccnc5)ccc43)CC2=O)c1 [13a1] | 150 |
| CC1(C)CN(C(=O)[C@H]2CC(=O)N(c3cccc(C#N)c3)C2)c2ccc(Cc3ccncc3)cc21 [22o1] | 2900 |
| Cn1cc(CCc2ccc3c(c2)C(C)(C)CN3C(=O)[C@H]2CC(=O)N(c3cccc(C#N)c3)C2)cn1 [11v1] | 510 |
| CC1(C)CN(C(=O)[C@H]2CC(=O)N(c3cccc(C#N)c3)C2)c2ccc(Cc3cncnc3)cc21 [22l1.2] | 380 |
| CC1(C)CN(C(=O)[C@H]2CC(=O)N(c3cccc(C#N)c3)C2)c2ccc(CCn3cncn3)cc21 [11zz1] | 99 |
| CC1(C)CN(C(=O)[C@H]2CC(=O)N(c3cccc(C#N)c3)C2)c2ccc(CNc3cncnc3)cc21 [31a1] | 86 |
| N#Cc1cccc(N2C[C@@H](C(=O)N3CC4(CC4)c4cc(Cn5ccnc5)ccc43)CC2=O)c1 [13r1] | 360 |
| CC1(C)CN(C(=O)[C@H]2CC(=O)N(c3cccc(C#N)c3)C2)c2cc(Cl)c(CCn3ccnc3)cc21 [17b1] | 330 |
| CC1CN(C(=O)[C@H]2CC(=O)N(c3cccc(C#N)c3)C2)c2ccc(CCc3cncnc3)cc21 (single isomer, unassigned) [11dd1] | 71 |
| Cc1c(Cn2ccnc2C)ccc2c1C(C)(C)CN2C(=O)[C@H]1CC(=O)N(c2cccc(C#N)c2)C1 [11r1] | 480 |
| Cc1ncc(Cc2ccc3c(c2)C(C)(CO)CN3C(=O)[C@H]2CC(=O)N(c3cccc(Cl)c3)C2)o1 (single isomer, unassigned) [11qq1] | 750 |
| CC(=O)N1CCC2(CC1)CN(C(=O)[C@H]1CC(=O)N(c3cccc(C#N)c3)C1)c1ccc(Cn3ccnc3C)cc12 [13v1] | 1600 |
| Cc1nccn1Cc1cc2c(cc1F)N(C(=O)[C@H]1CC(=O)N(c3cccc(C#N)c3)C1)CC2(C)C [13f1] | 140 |
| CC(=O)N1CCC2(CC1)CN(C(=O)[C@H]1CC(=O)N(c3cccc(C#N)c3)C1)c1ccc(Cc3cncnc3)cc12 [22z1] | 1300 |
| CC1(C)CN(C(=O)[C@H]2CC(=O)N(c3cccc(C#N)c3)C2)c2ccc(CCn3ccnc3)cc21 [11e1] | 240 |
| CC1(C)CN(C(=O)[C@H]2CC(=O)N(c3cccc(C#N)c3)C2)c2ccc(CCc3cncnc3)cc21 [11f1] | 95 |
| CC1(C)CN(C(=O)[C@H]2CC(=O)N(c3cccc(C#N)c3)C2)c2ccc(Cn3ccnc3CC(=O)O)cc21 [24a1] | 690 |
| CNc1ncc(CCc2ccc3c(c2)C(C)(C)CN3C(=O)[C@H]2CC(=O)N(c3cccc(C#N)c3)C2)cn1 [17o1] | 240 |
| Cc1nccn1Cc1cc2c(cc1Cl)N(C(=O)[C@H]1CC(=O)N(c3cccc(C#N)c3)C1)CC2(C)C [13x1] | 50 |
| Cc1cc2c(cc1Cn1ccnc1C)C(C)(C)CN2C(=O)[C@H]1CC(=O)N(c2cccc(C#N)c2)C1 [11q1] | 49 |
| CC1(C)CN(C(=O)[C@H]2CC(=O)N(c3cccc(C#N)c3)C2)c2ccc(CCc3ccccc3)cc21 [19b2] | 990 |
| Cc1ncc(Cc2ccc3c(c2)C2(CC2)CN3C(=O)[C@H]2CC(=O)N(c3cccc(C#N)c3)C2)o1 [22v1] | 790 |
| Cn1cncc1CCc1ccc2c(c1)C(C)(C)CN2C(=O)[C@H]1CC(=O)N(c2cccc(C#N)c2)C1 [19c2] | 420 |
| CC1(C)CN(C(=O)C2CC(=O)N(c3cccc(C#N)c3)C2)c2ccc(COc3cncnc3)cc21 (stereo not drawn) [13w1] | 840 |
| CC1CN(C(=O)[C@H]2CC(=O)N(c3cccc(Cl)c3)C2)c2ccc(CCc3cncnc3)cc21 (single isomer, unassigned) [11hh1] | 150 |
| N#Cc1cccc(N2C[C@@H](C(=O)N3CC4(CCOCC4)c4cc(Cn5ccnc5)ccc43)CC2=O)c1 [13t1] | 730 |
| Cc1noc(C)c1Cc1ccc2c(c1)C(C)(C)CN2C(=O)[C@H]1CC(=O)N(c2cccc(C#N)c2)C1 [22bb1] | 350 |
